Assay results published in patent publication US11584747B2, “Substituted pyridopyrimidinonyl compounds useful as T cell activators” (BRISTOL-MYERS SQUIBB COMPANY, priority 2019, dated 2023).
Read-outs that look alike come from different tables or passages of the source.

Columns and labels:
human DGKζ = human DGKζ (Homo sapiens (Human), UniProt Q13574); assay: DGKζ LIPGLO assay (extruded liposome substrate, ADP-Glo luminescence); type: biochemical
[1] = system: human venous whole blood (IFN-γ); assay: Human whole blood IFN-γ assay; type: cell-based
Method: Human venous whole blood (22.5 μL per well), obtained from healthy donors, was pre-treated with compounds for one hour at 37° C. in a humidified 95% air/5% CO2 incubator. The blood was stimulated with 2.5 μL anti-human CD3 and anti-CD28 mAb at a final concentration of 1 μg/mL each for 24 hours at 37° C. IFN-γ in the supernatants was measured using AlphLISA kit (Cat #AL217).

human DGKα [2] = target: T1, human DGKα (Homo sapiens (Human), UniProt P23743); assay: DGKα ADPGLO assay (detergent/lipid micelle substrate); type: biochemical; details: truncated DGK alpha; read-out: DGK alpha ADPGLO (Truncated) IC50
Method: DGK Alpha ADPGLO (Truncated) IC50 (uM)
The detergent/lipid micelle was prepared by combining 15 g phosphatidylserine (Avanti 840035P) and 1 g diacylglycerol (8008110) and dissolving into 150 mL chloroform in a 2 L round bottom flask. Chloroform was removed under high vacuum by rotary evaporation. […] The lipid/detergent solution was split into 5 mL aliquots and stored at −80° C.

human DGKα [3] = target: T1, human DGKα; assay: DGKα LIPGLO assay (extruded liposome substrate, ADP-Glo luminescence); type: biochemical
whole blood (pERK) = assay: pERK Whole Blood assay (Table A; no whole-blood pERK method described); type: cell-based; details: normalized
[4] = liposome assay, read-out: DGK zeta LIPGLO IC50
[5] = whole blood, normalized to 3 μM reference compound as 100% activation, read-out: IFN-γ Whole Blood Normalized EC50
[6] = liposome assay, read-out: DGK alpha LIPGLO IC50
[7] = Homo sapiens, whole blood, normalized to 3 μM reference compound as 100% activation, read-out: IFN-γ Whole Blood Normalized EC50

T1 sequence (P23743 whole entry, looked up, the tested form may be a part): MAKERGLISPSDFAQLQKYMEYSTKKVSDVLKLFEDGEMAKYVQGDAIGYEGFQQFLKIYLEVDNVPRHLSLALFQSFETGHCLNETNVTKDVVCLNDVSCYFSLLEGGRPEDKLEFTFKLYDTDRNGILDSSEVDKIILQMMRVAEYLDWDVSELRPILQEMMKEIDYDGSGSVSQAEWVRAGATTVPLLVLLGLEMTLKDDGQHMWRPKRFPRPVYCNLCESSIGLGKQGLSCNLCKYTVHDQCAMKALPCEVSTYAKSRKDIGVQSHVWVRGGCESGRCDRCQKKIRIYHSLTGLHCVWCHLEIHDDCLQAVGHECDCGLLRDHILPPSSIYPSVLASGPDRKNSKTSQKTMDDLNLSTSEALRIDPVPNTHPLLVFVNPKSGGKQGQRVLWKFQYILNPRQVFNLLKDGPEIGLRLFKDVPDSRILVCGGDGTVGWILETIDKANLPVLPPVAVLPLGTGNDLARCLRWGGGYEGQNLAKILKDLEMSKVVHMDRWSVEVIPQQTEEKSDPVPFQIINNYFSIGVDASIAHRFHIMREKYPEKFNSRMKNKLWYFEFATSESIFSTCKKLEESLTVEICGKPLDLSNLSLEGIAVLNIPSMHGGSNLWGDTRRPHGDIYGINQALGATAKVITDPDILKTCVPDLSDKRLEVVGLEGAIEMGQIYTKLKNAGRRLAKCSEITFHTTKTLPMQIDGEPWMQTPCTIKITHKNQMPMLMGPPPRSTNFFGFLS
human DGKζ, sequence (Q13574 other isoform, or with tags, fused parts or gaps): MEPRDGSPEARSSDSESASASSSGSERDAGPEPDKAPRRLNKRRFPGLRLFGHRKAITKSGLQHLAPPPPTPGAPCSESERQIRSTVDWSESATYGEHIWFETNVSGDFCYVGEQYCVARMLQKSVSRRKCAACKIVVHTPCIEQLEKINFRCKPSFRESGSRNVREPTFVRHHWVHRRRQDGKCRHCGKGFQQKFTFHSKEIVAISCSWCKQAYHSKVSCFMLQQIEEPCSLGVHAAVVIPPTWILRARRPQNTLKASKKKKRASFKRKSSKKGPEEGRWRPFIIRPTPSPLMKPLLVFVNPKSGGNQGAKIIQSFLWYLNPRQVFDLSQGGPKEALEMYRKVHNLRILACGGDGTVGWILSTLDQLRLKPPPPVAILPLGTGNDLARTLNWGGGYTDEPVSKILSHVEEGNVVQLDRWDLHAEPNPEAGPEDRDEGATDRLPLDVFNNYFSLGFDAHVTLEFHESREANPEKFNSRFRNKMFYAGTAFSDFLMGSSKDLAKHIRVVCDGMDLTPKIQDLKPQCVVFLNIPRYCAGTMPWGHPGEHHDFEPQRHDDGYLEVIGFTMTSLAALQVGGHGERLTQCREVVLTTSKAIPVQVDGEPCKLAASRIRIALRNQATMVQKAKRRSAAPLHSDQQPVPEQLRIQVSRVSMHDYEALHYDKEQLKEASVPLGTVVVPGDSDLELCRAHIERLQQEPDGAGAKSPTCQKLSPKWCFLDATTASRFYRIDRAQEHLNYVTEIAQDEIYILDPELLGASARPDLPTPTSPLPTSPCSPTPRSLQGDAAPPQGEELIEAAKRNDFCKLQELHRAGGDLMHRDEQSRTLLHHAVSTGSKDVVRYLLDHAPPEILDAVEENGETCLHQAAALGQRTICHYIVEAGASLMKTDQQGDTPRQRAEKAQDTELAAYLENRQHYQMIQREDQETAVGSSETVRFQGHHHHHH

Row | Structure (SMILES) | IC50 (human DGKζ; [4]) [nM] | IC50 (human DGKα [3]; [6]) [nM] | EC50 [1, 5] [nM] | other results
1 | CC[C@H]1CN(C(C)c2ccc(C(F)(F)F)cc2F)[C@H](CC)CN1c1nc(=O)n(C)c2ccc(C#N)nc12 (single isomer, unassigned) [Example 25] | 1340 | 1230 | 1250 | IC50 (human DGKα [2]): 330 nM
2 | CC[C@H]1CN(C(C)c2ccc(C(F)(F)F)cc2N2CCOCC2)[C@H](CC)CN1c1nc(=O)n(C)c2ccc(C#N)nc12 (stereo partly drawn) [Example 194, 4-((2S,5R)-2,5-diethyl-4-(1-(2-morpholino-4-(trifluoromethyl)phenyl)ethyl)piperazin-1-yl)-1-methyl-2-oxo-1,2-dihydropyrido[3,2-d]pyrimidine-6-carbonitrile] | 5250 |  |  | IC50 (whole blood (pERK)): 270 nM
3 | CC[C@H]1CN(C(c2ccc(OC(C)C)cc2)C(C)C)[C@H](CC)CN1c1nc(=O)n(C)c2ccc(C#N)nc12 (stereo partly drawn) [Example 262, 4-((2S,5R)-2,5-diethyl-4-(1-(4-isopropoxyphenyl)-2-methylpropyl)piperazin-1-yl)-1-methyl-2-oxo-1,2-dihydropyrido[3,2-d]pyrimidine-6-carbonitrile] |  |  |  | IC50 (whole blood (pERK)): 4150 nM
4 | C[C@@H]1CN(c2nc(=O)n(C)c3ccc(C#N)nc23)[C@@H](C)CN1Cc1cc(F)c(F)c(F)c1 [Example 130, 4-((2S,5R)-2,5-dimethyl-4-(3,4,5-trifluorobenzyl)piperazin-1-yl)-1-methyl-2-oxo-1,2-dihydropyrido[3,2-d]pyrimidine-6-carbonitrile] | 960 | 12400 |  | EC50 [1, 7]: 4070 nM
5 | CC(c1ccc(C2CC2)cc1F)N1C[C@H](C)N(c2nc(=O)n(C)c3ccc(C#N)nc23)C[C@H]1C (single isomer, unassigned) [Example 169] | 2180 | 4620 | 1330 | 
6 | CC[C@H]1CN(C(C)c2ccc(OC)cc2)[C@H](CC)CN1c1nc(=O)n(C)c2ccc(C#N)nc12 (single isomer, unassigned) [Example 17] | 2140 | 320 |  | EC50 [1, 7]: 2890 nM
7 | CC[C@H]1CN(C(C)c2ccc(C(F)(F)F)cc2)[C@H](CC)CN1c1nc(=O)n(C)c2ccc(C#N)nc12 (single isomer, unassigned) [Example 21] | 1010 | 386 | 2850 | 
8 | CC[C@H]1CN(C(C)c2ccc3c(c2)OC(F)(F)O3)[C@H](CC)CN1c1nc(=O)n(C)c2ccc(C#N)nc12 (single isomer, unassigned) [Example 15] | 1220 | 490 | 1740 | 
9 | CC(c1ccc(F)cc1)N1C[C@H](C)N(c2nc(=O)n(C)c3ccc(C#N)nc23)C[C@H]1C (single isomer, unassigned) [Example 129] | 1550 | 820 |  | EC50 [1, 7]: 13200 nM
10 | CC[C@H]1CN(C(C)c2ccc(OC(C)C)cc2)[C@H](CC)CN1c1nc(=O)n(C)c2ccc(C#N)nc12 (single isomer, unassigned) [Example 19] | 3100 | 4050 |  | EC50 [1, 7]: 2060 nM
11 | CC[C@H]1CN(C(C)c2ccc(OC(F)(F)F)c(F)c2)[C@H](CC)CN1c1nc(=O)n(C)c2ccc(C#N)nc12 (single isomer, unassigned) [Example 31] | 960 | 1700 | 270 | 
12 | CCC(c1ccc(OC(F)(F)F)cc1F)N1C[C@H](C)N(c2nc(=O)n(C)c3ccc(C#N)nc23)C[C@H]1C (single isomer, unassigned) [Example 153] | 1980 | 690 | 2310 | 
13 | CCC(c1ccc(OC(F)(F)F)cc1F)N1C[C@H](C)N(c2nc(=O)n(C)c3ccc(C#N)nc23)C[C@H]1CC (single isomer, unassigned) [Example 86] | 2370 | 2940 | 1540 | IC50 (human DGKα [2]): 420 nM
14 | CC(c1ccc2c(c1)OC(F)(F)O2)N1C[C@H](C)N(c2nc(=O)n(C)c3ccc(C#N)nc23)C[C@H]1C (single isomer, unassigned) [Example 167] | 2380 | 17800 | 3850 | 
15 | CC(c1ccc(OC(C)(C)C#N)cc1)N1C[C@H](C)N(c2nc(=O)n(C)c3ccc(C#N)nc23)C[C@H]1C (stereo partly drawn) [Example 376, 4-((2S,5R)-4-(1-(4-((2-cyanopropan-2-yl)oxy)phenyl)ethyl)-2,5-dimethylpiperazin-1-yl)-1-methyl-2-oxo-1,2-dihydropyrido[3,2-d]pyrimidine-6-carbonitrile] |  |  |  | IC50 (human DGKζ; liposome (LIPGLO) assay, read-out: DGK zeta (liposome assay) IC50): 97 nM; EC50 ([1]; human whole blood, anti-CD3 plus anti-CD28 stimulation, 24 hours, read-out: IFN-γ Whole Blood EC50): 58 nM; IC50 (human DGKα [3]; liposome (LIPGLO) assay, read-out: DGK alpha (liposome assay) IC50): 30 nM

The next lines start with results.

Row | IC50 (human DGKζ; [4]) [nM] | IC50 (human DGKα [3]; [6]) [nM] | Structure (SMILES) | EC50 [1, 5] [nM] | other results
16 | 110 | 230 | CC[C@@H]1CN(c2nc(=O)n(C)c3ccc(C#N)nc23)[C@@H](C)CN1C(c1ccc(F)cc1)c1cccc(C(F)(F)F)n1 (single isomer, unassigned) [Example 66] | 75 | IC50 (human DGKα [2]): 2 nM
17 | 470 | 69 | CCC(c1ccc(OC(F)(F)F)cc1)N1C[C@H](CC)N(c2nc(=O)n(C)c3ccc(C#N)nc23)C[C@H]1CC (single isomer, unassigned) [Example 37] | 20000 | IC50 (human DGKα [2]): 120 nM
18 | 590 | 120 | CCC(c1ccc(C(F)(F)F)cc1)N1C[C@H](C)N(c2nc(=O)n(C)c3ccc(C#N)nc23)C[C@H]1CC (single isomer, unassigned) [Example 90] |  | IC50 (human DGKα [2]): 140 nM
19 | 260 | 300 | CC[C@@H]1CN(c2nc(=O)n(C)c3ccc(C#N)nc23)[C@@H](C)CN1C(C)c1ccc(C(F)(F)F)cc1F (single isomer, unassigned) [Example 59] | 500 | 
20 | 340 | 120 | C[C@@H]1CN(c2nc(=O)n(C)c3ccc(C#N)nc23)[C@@H](C)CN1C(c1ccc(OC(F)(F)F)cc1)c1cc(C2CC2)on1 (single isomer, unassigned) [Example 164] |  | EC50 [1, 7]: 650 nM
21 | 240 | 530 | C[C@@H]1CN(c2nc(=O)n(C)c3ccc(C#N)nc23)[C@@H](C)CN1Cc1ccc(F)c(F)c1 [Example 133, 4-((2 S,5R)-4-(3,4-difluorobenzyl)-2,5-dimethylpiperazin-1-yl)-1-methyl-2-oxo-1,2-dihydropyrido[3,2-d]pyrimidine-6-carbonitrile] |  | EC50 [1, 7]: 710 nM
22 | 100 | 1190 | CC[C@@H]1CN(c2nc(=O)n(C)c3ccc(C#N)nc23)[C@@H](C)CN1C(c1ccc(F)cc1)c1cccc(C(F)(F)F)n1 (single isomer, unassigned) [Example 65] | 360 | 
23 | 22 | 81 | COC[C@@H]1CN(c2nc(=O)n(C)c3ccc(C#N)nc23)[C@@H](C)CN1C(c1ccc(F)cc1)c1ccc(C(F)(F)F)cn1 (single isomer, unassigned) [Example 179] | 55 | 
24 | 110 | 190 | CC(c1ccc(C2CC2)cc1)N1C[C@H](C)N(c2nc(=O)n(C)c3ccc(C#N)nc23)C[C@H]1C (single isomer, unassigned) [Example 3] | 31 | 
25 | 140 | 590 | COC[C@@H]1CN(c2nc(=O)n(C)c3ccc(C#N)nc23)[C@@H](C)CN1C(C)c1ccc(C(F)(F)F)cc1 (single isomer, unassigned) [Example 174] | 140 | 
26 | 17 | 29 | [2H]C([2H])([2H])Oc1ccc(C(C)N2C[C@H](CC)N(c3nc(=O)n(C)c4ccc(C#N)nc34)C[C@H]2CC)cc1 (single isomer, unassigned) [Example 190] | 9 | 
27 | 780 | 4260 | C[C@@H]1CN(c2nc(=O)n(C)c3ccc(C#N)nc23)[C@@H](C)CN1Cc1cc(F)c(F)cc1Cl [Example 134, 4-((2S,5R)-4-(2-chloro-4,5-difluorobenzyl)-2,5-dimethylpiperazin-1-yl)-1-methyl-2-oxo-1,2-dihydropyrido[3,2-d]pyrimidine-6-carbonitrile] |  | EC50 [1, 7]: 3670 nM
28 | 220 | 920 | C[C@@H]1CN(c2nc(=O)n(C)c3ccc(C#N)nc23)[C@@H](C)CN1Cc1ccc(F)cc1Cl [Example 136, 4-((2S,5R)-4-(2-chloro-4-fluorobenzyl)-2,5-dimethylpiperazin-1-yl)-1-methyl-2-oxo-1,2-dihydropyrido[3,2-d]pyrimidine-6-carbonitrile] |  | EC50 [1, 7]: 650 nM
29 | 23 | 300 | CCC(c1ccc2c(c1)OC(F)(F)O2)N1C[C@H](C)N(c2nc(=O)n(C)c3ccc(C#N)nc23)C[C@H]1CC (single isomer, unassigned) [Example 79] |  | EC50 [1, 7]: 300 nM
30 | 330 | 5390 | CC(c1ccc2c(c1)OC(F)(F)O2)N1C[C@H](C)N(c2nc(=O)n(C)c3ccc(C#N)nc23)C[C@H]1C (single isomer, unassigned) [Example 166] | 500 | 
31 | 38 | 94 | C[C@@H]1CN(c2nc(=O)n(C)c3ccc(C#N)nc23)[C@@H](C)CN1C(c1ccc(F)cc1)c1nc(C2CC2)cs1 (single isomer, unassigned) [Example 159] | 250 | 
